Experimental data: ChEMBL document CHEMBL1201862, “PubChem BioAssay data set” (2004)
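Compound exposure: 48 hours, 5 concentrations, 96-well plates. GI50 is the concentration that inhibits growth by half.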 Calls of active or inactive are those of the source. Cut-off read from the data, not from the text of the source: active = GI50 up to about 1.1 µM and inactive = higher.

Columns and labels:
Test in all cases: DTP human tumour cell line panel, 48 h
K562 = system: K562
UO-31 = system: UO-31
OVCAR-4 = system: OVCAR-4
786-0 = system: 786-0
NCI-H226 = system: NCI-H226
IGROV-1 = system: IGROV-1
SNB-75 = system: SNB-75
COLO 205 = system: COLO 205
SF-295 = system: SF-295
HOP-92 = system: HOP-92
SK-OV-3 = system: SK-OV-3
NCI-H460 = system: NCI-H460
SNB-19 = system: SNB-19
SF-268 = system: SF-268
RPMI-8226 = system: RPMI-8226
RXF 393 = system: RXF 393
OVCAR-5 = system: OVCAR-5
SR = system: SR

Measured: GI50

O=C(Nc1ccccc1)n1cc(-c2ccccn2)c(N2CCOCC2)n1
inactive: K562 3.58 µM | UO-31 11.8 µM | OVCAR-4 > 100 µM | 786-0 4.49 µM | NCI-H226 23.8 µM | IGROV-1 12 µM | SNB-75 3.78 µM | COLO 205 5.14 µM | SF-295 1.9 µM | HOP-92 16.9 µM | SK-OV-3 9.84 µM | NCI-H460 4.19 µM | SNB-19 9.57 µM | SF-268 > 100 µM | RPMI-8226 4.27 µM

CCCOCN1COCN/C1=N\C#N
inactive: K562 > 100 µM | UO-31 > 100 µM | RXF 393 15.3 µM | OVCAR-4 32.1 µM | 786-0 22 µM | NCI-H226 > 100 µM | IGROV-1 > 100 µM | SNB-75 > 100 µM | COLO 205 17.9 µM | SF-295 > 100 µM | OVCAR-5 > 100 µM | HOP-92 > 100 µM | SK-OV-3 > 100 µM | NCI-H460 > 100 µM | SNB-19 > 100 µM | SF-268 39.1 µM | RPMI-8226 69.7 µM

COc1ccccc1/N=N/c1c(-c2ccccc2)nn(C(=O)CC(=O)Nc2cccc(C)c2)c1-c1ccccc1
inactive: K562 15.7 µM | UO-31 19.7 µM | RXF 393 53.3 µM | OVCAR-4 28.6 µM | 786-0 43.1 µM | NCI-H226 36.3 µM | IGROV-1 24.7 µM | SNB-75 11.8 µM | COLO 205 71.3 µM | SF-295 28.2 µM | OVCAR-5 36.3 µM | NCI-H460 27.2 µM | SNB-19 27.2 µM | SF-268 39.4 µM

CCOC(=O)[C-]([N+]#N)[Si](C)(C)C
inactive: RXF 393 > 100 µM | OVCAR-4 > 100 µM | 786-0 > 100 µM | IGROV-1 > 100 µM | SNB-75 > 100 µM | COLO 205 > 100 µM | SF-295 > 100 µM | OVCAR-5 > 100 µM | HOP-92 > 100 µM | NCI-H460 > 100 µM | SNB-19 > 100 µM | SF-268 21.6 µM

COC(=O)C1=C(C(=O)OC)C2C(C)=CC(C)=CN2C(C#N)=C(SC)S1 (configuration not stated)
inactive: K562 20.7 µM | UO-31 12.7 µM | RXF 393 16.1 µM | SR 19 µM | 786-0 30.8 µM | NCI-H226 17 µM | IGROV-1 > 10 µM | SNB-75 23.2 µM | COLO 205 17.4 µM | SF-295 31 µM | OVCAR-5 35.3 µM | SK-OV-3 46.3 µM | NCI-H460 > 100 µM | SNB-19 52.4 µM | SF-268 20.6 µM | RPMI-8226 21.6 µM

O=C(COc1ccc(Cl)cc1)N1CCN(C(=O)COc2ccc(Cl)cc2)c2ccccc21
inactive: K562 37.6 µM | UO-31 7.23 µM | RXF 393 47.6 µM | 786-0 64.9 µM | IGROV-1 50.7 µM | SNB-75 45.6 µM | COLO 205 45.2 µM | SF-295 54.5 µM | OVCAR-5 70 µM | HOP-92 30.3 µM | SK-OV-3 81.5 µM | NCI-H460 60.7 µM | SF-268 41.6 µM | RPMI-8226 20.6 µM

CC12CP(=O)(c3ccccc3)CC1C2(Cl)Cl (configuration not stated)
inactive: K562 > 100 µM | RXF 393 > 100 µM | OVCAR-4 > 100 µM | 786-0 > 100 µM | IGROV-1 > 100 µM | SNB-75 28.1 µM | COLO 205 > 100 µM | SF-295 > 100 µM | SK-OV-3 > 100 µM | NCI-H460 > 100 µM | SNB-19 > 100 µM | RPMI-8226 > 100 µM

COC(=O)C(=O)C(C(=O)C(=O)Nc1ccc(C)cc1C)c1nc2ccccc2nc1O (configuration not stated)
inactive: K562 42.5 µM | UO-31 30.9 µM | RXF 393 17.8 µM | SR 35.8 µM | OVCAR-4 > 100 µM | 786-0 77.4 µM | NCI-H226 37.4 µM | IGROV-1 32.5 µM | SNB-75 15 µM | COLO 205 79.3 µM | SF-295 > 100 µM | OVCAR-5 30.9 µM | SK-OV-3 40.1 µM | NCI-H460 85.5 µM | SNB-19 > 100 µM | SF-268 99.1 µM | RPMI-8226 35 µM

CC(=O)Nc1c(Nc2ccccc2)[nH]c(C)nc1=S
inactive: K562 > 100 µM | UO-31 > 100 µM | RXF 393 > 100 µM | OVCAR-4 > 100 µM | 786-0 > 100 µM | IGROV-1 > 100 µM | SNB-75 92.9 µM | COLO 205 > 100 µM | SF-295 > 100 µM | OVCAR-5 > 100 µM | HOP-92 > 100 µM | SK-OV-3 > 100 µM | NCI-H460 > 100 µM | SNB-19 > 100 µM | SF-268 > 100 µM | RPMI-8226 > 100 µM

CC(C)OC(=O)C1Cc2c([nH]c3ccccc23)C(c2ccccc2)N1 (configuration not stated)
inactive: K562 50.1 µM | UO-31 18 µM | RXF 393 23.8 µM | OVCAR-4 79.8 µM | 786-0 27.7 µM | NCI-H226 > 100 µM | IGROV-1 > 100 µM | SNB-75 18.3 µM | COLO 205 > 100 µM | SF-295 > 100 µM | OVCAR-5 > 100 µM | HOP-92 55 µM | SK-OV-3 > 100 µM | NCI-H460 > 100 µM | SNB-19 > 100 µM | SF-268 56.9 µM | RPMI-8226 84.9 µM

CCOC(=O)/C(C#N)=C1/C(O)=C(C(=O)OC)C(C(=O)OC)=C1C(=O)OC.c1ccncc1
inactive: K562 > 100 µM | UO-31 > 100 µM | RXF 393 > 100 µM | OVCAR-4 > 100 µM | 786-0 > 100 µM | IGROV-1 > 100 µM | SNB-75 > 100 µM | COLO 205 > 100 µM | SF-295 > 100 µM | OVCAR-5 > 100 µM | HOP-92 > 100 µM | SK-OV-3 > 100 µM | NCI-H460 > 100 µM | SNB-19 > 100 µM | SF-268 > 100 µM | RPMI-8226 > 100 µM

C[N+](C)(C)CC(=O)N/N=C(\CCC(=O)NCCc1ccccc1)CC(=O)c1ccccc1
inactive: K562 > 100 µM | UO-31 > 100 µM | OVCAR-4 > 100 µM | 786-0 > 100 µM | NCI-H226 > 100 µM | IGROV-1 > 100 µM | COLO 205 > 100 µM | SF-295 > 100 µM | OVCAR-5 > 100 µM | HOP-92 > 100 µM | SK-OV-3 > 100 µM | NCI-H460 > 100 µM | SNB-19 > 100 µM | SF-268 > 100 µM | RPMI-8226 > 100 µM

COc1cc(CCc2cccnc2)cc(OC)c1OC
inactive: K562 > 100 µM | UO-31 > 100 µM | RXF 393 > 100 µM | OVCAR-4 > 100 µM | 786-0 > 100 µM | NCI-H226 > 100 µM | IGROV-1 > 100 µM | SNB-75 51.1 µM | COLO 205 > 100 µM | SF-295 > 100 µM | OVCAR-5 38.5 µM | HOP-92 30.3 µM | NCI-H460 > 100 µM | SNB-19 > 100 µM | SF-268 > 100 µM | RPMI-8226 > 100 µM
